Measurements reported in patent US20110082130A1 (LIGAND PHARMACEUTICALS, INC., priority 2006, published 2011).

target: T1, chimeric human H3 receptor (Homo sapiens, UniProt Q9Y5N1); experiment: Chimeric human H3 receptor screening GTP binding assay (inhibition of histamine-stimulated GTP-gamma35S binding, Example 8); assay type: biochemical; conditions: 4 μM of the compound, 1 μM histamine, "†" in Ki of Table II, read-out: percent inhibition of the signal obtained with 1 μM histamine
T1 construct: made in house; host or cells: Sf9 insect cells (baculovirus); P2 membrane preparation
Experimental: This Example illustrates a representative screening assay for evaluating inhibition of histamine-stimulated GTP-gamma^35S binding. Such GTP binding activity can be used to identify H3 antagonists and inverse agonists. A compound analyzed in this assay is referred to herein as a “test compound,” and the initial identification of antagonists and inverse agonists is performed using a test compound concentration of 4 μM.
Four independent baculoviral stocks (one directing the expression of the chimeric human H3 receptor and three directing the expression of each of the three subunits of a heterotrimeric G-protein) are used to infect a culture of Sf9 cells as described above. P2 membranes are prepared as described above, and are resuspended by Dounce homogenization (tight pestle) in GTP binding assay buffer (50 mM Tris pH 7.4, 120 mM NaCl, 5 mM MgCl2, 2 mM EGTA, 1 mg/ml BSA, 0.2 mg/ml bacitracin, 0.02 mg/ml aprotinin, 0.01 mg/ml saponin, 10 μM GDP) and added to assay tubes at a concentration of 35 μg protein/reaction tube. Non-radiolabeled test compounds are added to separate reactions at a concentration of 4 μM along with 1 μM histamine (agonist). Reactions are initiated by the addition of […] GTP-gamma^35S with a final assay volume of 0.20 ml.
After a 60-min incubation at room temperature, reactions are terminated by vacuum filtration over GF/C filters (pre-soaked in 50 mM Tris pH 7.4, 120 mM NaCl plus 0.1% BSA) followed by washing with ice-cold buffer (50 mM Tris pH 7.4, 120 mM NaCl). The amount of receptor-bound (and thereby membrane-bound) GTP-gamma^35S is determined by measuring the bound radioactivity, preferably by liquid scintillation spectrometry of the washed filters. Non-specific binding is determined using 10 uM GTP-gammaS and typically represents less than 5 percent of total binding. After subtraction of non-specific binding, data is expressed as percent inhibition of 1 μM histamine signal.
Neutral antagonists are those test compounds that reduce the histamine-stimulated GTP binding activity towards, but not below, baseline levels. In contrast, in the absence of added histamine, inverse agonists reduce the GTP binding activity of the receptor-containing membranes below baseline. Any test compound that elevates GTP binding activity above baseline in the absence of added histamine in this assay is defined as having agonist activity.

T1 sequence (Q9Y5N1 with tags, fused parts or gaps): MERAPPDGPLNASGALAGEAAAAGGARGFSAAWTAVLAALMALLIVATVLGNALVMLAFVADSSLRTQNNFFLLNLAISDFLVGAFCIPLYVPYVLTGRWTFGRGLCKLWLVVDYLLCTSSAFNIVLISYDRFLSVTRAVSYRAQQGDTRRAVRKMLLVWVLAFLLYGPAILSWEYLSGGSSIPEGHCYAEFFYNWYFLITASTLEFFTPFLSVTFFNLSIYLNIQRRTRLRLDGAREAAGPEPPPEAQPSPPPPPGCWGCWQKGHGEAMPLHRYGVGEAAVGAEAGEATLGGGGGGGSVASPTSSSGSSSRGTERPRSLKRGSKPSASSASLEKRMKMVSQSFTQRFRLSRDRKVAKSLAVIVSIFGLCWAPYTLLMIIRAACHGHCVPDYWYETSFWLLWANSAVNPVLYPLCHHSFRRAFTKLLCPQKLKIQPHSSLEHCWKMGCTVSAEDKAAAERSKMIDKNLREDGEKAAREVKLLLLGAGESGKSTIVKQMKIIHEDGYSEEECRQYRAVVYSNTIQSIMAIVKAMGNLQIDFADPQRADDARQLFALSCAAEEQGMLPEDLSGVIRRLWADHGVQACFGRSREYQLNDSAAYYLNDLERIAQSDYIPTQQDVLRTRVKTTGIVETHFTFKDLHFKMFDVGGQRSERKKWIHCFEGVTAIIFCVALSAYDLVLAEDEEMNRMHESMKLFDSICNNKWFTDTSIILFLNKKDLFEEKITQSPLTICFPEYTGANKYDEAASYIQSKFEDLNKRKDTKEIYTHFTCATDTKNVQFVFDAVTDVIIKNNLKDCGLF

Inhibition at 4 µM, ≥ 90%:
COc1ccc(C(C)C)cc1-c1nc2c(s1)CN(CC(=O)N1CCN(C3CCC3)CC1)CC2 [Compound 337, 5-[2-(4-cyclobutylpiperazin-1-yl)-2-oxoethyl]-2-(5-isopropyl-2-methoxyphenyl)-4,5,6,7-tetrahydro[1,3]thiazolo [5,4-c]pyridine]
O=C(CN1CCc2cc(-c3ccccc3)ccc2C1)N1CCN(C2CCCC2)CC1 [Compound 399, 2-[2-(4-cyclopentylpiperazin-1-yl)-2-oxoethyl]-6-phenyl-1,2,3,4-tetrahydroisoquinoline]
O=C(CN1CCc2cc(-c3cccc(F)c3)ccc2C1)N1CCN(C2CCCCC2)CC1 [Compound 412, 2-[2-(4-cyclohexylpiperazin-1-yl)-2-oxoethyl]-6-(3-fluorophenyl)-1,2,3,4-tetrahydroisoquinoline]
Cc1ccc(-c2ccc3c(c2)CCN(CC(=O)N2CCN(C4CCCCC4)CC2)C3)cc1C [Compound 449, 2-[2-(4-cyclohexylpiperazin-1-yl)-2-oxoethyl]-6-(3,4-dimethylphenyl)-1,2,3,4-tetrahydroisoquinoline]
CC(C)c1ccc(-c2ccc3c(c2)CCN(CC(=O)N2CCN(C(C)C)CC2)C3)cc1 [Compound 446, 6-(4-isopropylphenyl)-2-[2-(4-isopropylpiperazin-1-yl)-2-oxoethyl]-1,2,3,4-tetrahydroisoquinoline]
CC(C)c1cccc(-c2ccc3c(c2)CCN(CC(=O)N2CCN(C4CCCCC4)CC2)C3)c1 [Compound 441, 2-[2-(4-cyclohexylpiperazin-1-yl)-2-oxoethyl]-6-(3-isopropylphenyl)-1,2,3,4-tetrahydroisoquinoline]
O=C(CN1CCc2cc(-c3cccc(Cl)c3)ccc2C1)N1CCN(C2CCCC2)CC1 [Compound 402, 6-(3-chlorophenyl)-2-[2-(4-cyclopentylpiperazin-1-yl)-2-oxoethyl]-1,2,3,4-tetrahydroisoquinoline]
CCCCc1ccc(-c2ccc3c(c2)CCN(CC(=O)N2CCN(C4CCCC4)CC2)C3)cc1 [Compound 452, 6-(4-butylphenyl)-2-[2-(4-cyclopentylpiperazin-1-yl)-2-oxoethyl]-1,2,3,4-tetrahydroisoquinoline]
Cc1ccc(-c2ccc3c(c2)CCN(CC(=O)N2CCN(C4CCC4)CC2)C3)c(F)c1 [Compound 420, 2-[2-(4-cyclobutylpiperazin-1-yl)-2-oxoethyl]-6-(2-fluoro-4-methylphenyl)-1,2,3,4-tetrahydroisoquinoline]
Cc1cccc(-c2ccc3c(c2)CCN(CC(=O)N2CCN(C4CCC4)CC2)C3)c1 [Compound 432, 2-[2-(4-cyclobutylpiperazin-1-yl)-2-oxoethyl]-6-(3-methylphenyl)-1,2,3,4-tetrahydroisoquinoline]
O=C(CN1CCc2cc(-c3cccc4c3oc3ccccc34)ccc2C1)N1CCN(C2CCCC2)CC1 [Compound 379, 2-[2-(4-cyclopentylpiperazin-1-yl)-2-oxoethyl]-6-dibenzo[b,d]furan-4-yl-1,2,3,4-tetrahydroisoquinoline]
CCc1ccc(-c2ccc3c(c2)CCN(CC(=O)N2CCN(C4CCC4)CC2)C3)cc1 [Compound 459, 2-[2-(4-cyclobutylpiperazin-1-yl)-2-oxoethyl]-6-(4-ethylphenyl)-1,2,3,4-tetrahydroisoquinoline]

same assay, conditions: Table II "Ki", symbol †, 4 μM of the compound, 1 μM histamine, read-out: percent inhibition of the signal obtained with 1 μM histamine

Inhibition at 4 µM, ≥ 90%:
CCOc1ccccc1-c1ccc2c(c1)CCN(CC(=O)N1CCN(C3CCCCC3)CC1)C2 [Compound 568, 2-[2-(4-cyclohexylpiperazin-1-yl)-2-oxoethyl]-6-(2-ethoxyphenyl)-1,2,3,4-tetrahydroisoquinoline]
O=C(CN1CCc2cc(-c3ccc(Cl)c(F)c3)ccc2C1)N1CCN(C2CCCCC2)CC1 [Compound 593, 6-(4-chloro-3-fluorophenyl)-2-[2-(4-cyclohexylpiperazin-1-yl)-2-oxoethyl]-1,2,3,4-tetrahydroisoquinoline]
O=C(CN1CCc2cc(-c3ccc(Oc4ccccc4)cc3)ccc2C1)N1CCN(C2CCCC2)CC1 [Compound 487, 2-[2-(4-cyclopentylpiperazin-1-yl)-2-oxoethyl]-6-(4-phenoxyphenyl)-1,2,3,4-tetrahydroisoquinoline]
COc1ccc(-c2ccc(-c3ccc4c(c3)CCN(CC(=O)N3CCN(C5CCC5)CC3)C4)cc2)cc1 [Compound 498, 2-[2-(4-cyclobutylpiperazin-1-yl)-2-oxoethyl]-6-(4′-methoxybiphenyl-4-yl)-1,2,3,4-tetrahydroisoquinoline]
CC(C)N1CCN(C(=O)CN2CCc3cc(-c4ccc(N(C)C)cc4)ccc3C2)CC1 [Compound 535, 4-{2-[2-(4-isopropylpiperazin-1-yl)-2-oxoethyl]-1,2,3,4-tetrahydroisoquinolin-6-yl}-N,N-dimethylaniline]
O=C(CN1CCc2cc(-c3ccc(F)c(F)c3)ccc2C1)N1CCN(C2CCCCC2)CC1 [Compound 591, 2-[2-(4-cyclohexylpiperazin-1-yl)-2-oxoethyl]-6-(3,4-difluorophenyl)-1,2,3,4-tetrahydroisoquinoline]
COc1ccc(-c2ccc3c(c2)CCN(CC(=O)N2CCN(C4CCC4)CC2)C3)c(C)c1 [Compound 548, 2-[2-(4-cyclobutylpiperazin-1-yl)-2-oxoethyl]-6-(4-methoxy-2-methylphenyl)-1,2,3,4-tetrahydroisoquinoline]
COc1ccc2cc(-c3ccc4c(c3)CCN(CC(=O)N3CCN(C5CCCCC5)CC3)C4)ccc2c1 [Compound 511, 2-[2-(4-cyclohexylpiperazin-1-yl)-2-oxoethyl]-6-(6-methoxy-2-naphthyl)-1,2,3,4-tetrahydroisoquinoline]
COc1ccc2cc(-c3ccc4c(c3)CCN(CC(=O)N3CCN(C(C)C)CC3)C4)ccc2c1 [Compound 512, 2-[2-(4-isopropylpiperazin-1-yl)-2-oxoethyl]-6-(6-methoxy-2-naphthyl)-1,2,3,4-tetrahydroisoquinoline]
CC(C)N1CCN(C(=O)CN2CCc3cc(-c4ccccc4Oc4ccccc4)ccc3C2)CC1 [Compound 578, 2-[2-(4-isopropylpiperazin-1-yl)-2-oxoethyl]-6-(2-phenoxyphenyl)-1,2,3,4-tetrahydroisoquinoline]
O=C(CN1CCc2cc(-c3cncnc3)ccc2C1)N1CCN(C2C[C@H]3CC[C@@H]2C3)CC1 (stereo partly drawn) [Compound 623, 2-(2-{4-[(1R,4S)-bicyclo[2.2.1]hept-2-yl]piperazin-1-yl}-2-oxoethyl)-6-pyrimidin-5-yl-1,2,3,4-tetrahydroisoquinoline]
CCC(C)N1CCN(C(=O)CN2CCc3cc(-c4cncnc4)ccc3C2)C[C@H]1C (stereo partly drawn) [Compound 606, 2-{2-[(3R)-4-sec-butyl-3-methylpiperazin-1-yl]-2-oxoethyl}-6-pyrimidin-5-yl-1,2,3,4-tetrahydroisoquinoline]
CN(C)c1ccc(-c2ccc3c(c2)CCN(CC(=O)N2CCN(C4CCCCC4)CC2)C3)cc1 [Compound 534, 4-{2-[2-(4-cyclohexylpiperazin-1-yl)-2-oxoethyl]-1,2,3,4-tetrahydroisoquinolin-6-yl}-N,N-dimethylaniline]
COc1ccc2cc(-c3ccc4c(c3)CCN(CC(=O)N3CCN(C5CCCC5)CC3)C4)ccc2c1 [Compound 510, 2-[2-(4-cyclopentylpiperazin-1-yl)-2-oxoethyl]-6-(6-methoxy-2-naphthyl)-1,2,3,4-tetrahydroisoquinoline]
CN(CC#N)c1ccc2c(n1)CCN(CC(=O)N1CCN(C3CCC3)CC1)C2 [Compound 680, [{6-[2-(4-cyclobutylpiperazin-1-yl)-2-oxoethyl]-5,6,7,8-tetrahydro-1,6-naphthyridin-2-yl}(methyl)amino] acetonitrile]
COc1ccc(-c2ccc3c(c2)CCN(CC(=O)N2CCN(C4CCCCC4)CC2)C3)cc1 [Compound 522]
